The test system of one test is rats. To be noted: MI rat model; hypertension-induced cardiac dysfunction rat model; cited from earlier work. From the text: Another avenue being investigated is the use of small molecule as agonists for the apelinR, such as, Bristol Myers Squibb's BMS-986224,[26,27] Amgen's AMG986,[28] and Davenport's CMF-019.[29] […] In contrast, the two non peptidic apelinR agonists, BMS-98622 ...

The target in another test is T1, apelinR / human Gαi1 (Homo sapiens, UniProt P35414).
T1 sequence (P35414 1-380): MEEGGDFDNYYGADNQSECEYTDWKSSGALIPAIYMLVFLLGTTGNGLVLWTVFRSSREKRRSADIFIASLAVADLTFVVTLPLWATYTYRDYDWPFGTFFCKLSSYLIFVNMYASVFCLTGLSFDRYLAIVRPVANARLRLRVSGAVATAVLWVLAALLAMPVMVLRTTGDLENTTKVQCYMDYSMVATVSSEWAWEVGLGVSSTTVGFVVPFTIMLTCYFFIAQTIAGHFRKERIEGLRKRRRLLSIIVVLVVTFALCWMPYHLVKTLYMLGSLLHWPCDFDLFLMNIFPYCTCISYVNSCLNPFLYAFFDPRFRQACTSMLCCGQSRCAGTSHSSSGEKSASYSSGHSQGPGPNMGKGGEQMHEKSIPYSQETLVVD
As to the kind of experiment: ebBRET Gαi1 activation. Conditions: HEK293 cells transfected with apelinR, human Gαi1, Rap1GAP-RlucII, rGFP-CAAX; 10 min at 37 °C; mean ± SEM of 5 to 6 independent experiments; read-out: Gαi1 activation log EC50 (converted). The test is classed as cell-based.

A further test addresses T2, apelinR / human Gαi2 (Homo sapiens, UniProt P35414).
T2 sequence (P35414 1-380): T1 sequence (P35414 1-380)
In words: ebBRET Gαi2 activation. It is filed as cell-based. Conditions: HEK293 cells transfected with apelinR, human Gαi2, Rap1GAP-RlucII, rGFP-CAAX; 10 min at 37 °C; mean ± SEM of 5 to 6 independent experiments; read-out: Gαi2 activation log EC50 (converted).

Where a SMILES comes first, the peptide text is derived from it.

These results are taken from publication PMC12715805, “Screening apelin analogues and a small molecule agonist as effective cardiovascular therapeutics against reperfusion injury” (RSC Medicinal Chemistry, 2025).

`COc1cccc(OC)c1-n1c(NS(=O)(=O)[C@@H](C)[C@@H](OC(C)C)c2ncc(C)cn2)nnc1-c1cncc(C)c1` [AM-812337]: in the test with rats, the “change in BP in a myocardial infarction (MI) rat model and a hypertension-induced cardiac dysfunction rat model (in words)” value was “do not induce any change in BP”.

With `CSCC[C@H](NC(=O)[C@@H]1CCCN1C(=O)CNC(=O)[C@H](CCCCN)NC(=O)[C@H](Cc1c[nH]cn1)NC(=O)[C@@H](N)CO)C(=O)N1CCC[C@H]1C(=O)N[C@@H](Cc1ccccc1)C(=O)O` [apelin 8-mer C-terminal] (H-SHKGPMPF-OH), the half-maximal effective concentration (EC50) is 490 nM at apelinR / human Gαi1 and 347 nM on apelinR / human Gαi2.

With `CSCC[C@H](NC(=O)[C@@H]1CCCN1C(=O)CN)C(=O)N1CCC[C@H]1C(=O)N[C@@H](Cc1ccccc1)C(=O)O` [apelin-5-mer C-terminal] (H-GPMPF-OH), the concentration giving a half-maximal response (EC50) at apelinR / human Gαi1 is 1070 nM; at apelinR / human Gαi2 it was 1150 nM.

One may read the EC50 as the concentration that produces a half-maximal response.
